Where a SMILES comes first, the peptide text is derived from it. Bridges are numbered along the chain shown (N, C = ends). [ ]: non-standard residue; d: D form. The star is where a group is joined. ξ: configuration not given here. Phe(3-CF3) = N[C@@H](Cc1cccc(C(F)(F)F)c1)C(=O)O; Phe(4-CF3) = N[C@@H](Cc1ccc(C(F)(F)F)cc1)C(=O)O; Phe(4-COOH) = N[C@@H](Cc1ccc(C(=O)O)cc1)C(=O)O; Bip = N[C@@H](Cc1ccc(-c2ccccc2)cc1)C(=O)O; NH(CH2)14COOH = O=C(O)CCCCCCCCCCCCCCN*; Phe(3-Me) = Cc1cccc(C[C@H](N)C(=O)O)c1; NH(CH2)12COOH = O=C(O)CCCCCCCCCCCCN*; Val(3-OH) = CC(C)(O)[C@H](N)C(=O)O; hArg = N=C(N)NCCCC[C@H](N)C(=O)O; 4Pal = N[C@@H](Cc1ccncc1)C(=O)O; Cha = N[C@@H](CC1CCCCC1)C(=O)O; Cit = NC(=O)NCCC[C@H](N)C(=O)O; Ile(3ξ) = CCC(C)[C@H](N)C(=O)O; Thr(3ξ) = CC(O)[C@H](N)C(=O)O; NMeNle = CCCC[C@H](NC)C(=O)O; 3Abz = Nc1cccc(C(=O)O)c1; Carboxymethyl = O=C(O)C*; NMeA = CN[C@@H](C)C(=O)O; Orn = NCCC[C@H](N)C(=O)O; Aun = NCCCCCCCCCCC(=O)O; Dab = NCC[C@H](N)C(=O)O; Dap = NC[C@H](N)C(=O)O; AEEA = NCCOCCOCC(=O)O
The compounds below were run against T1, PD-1/PD-L1 interaction (PE-labeled human PD-L1-Ig binding to Jurkat cell line over-expressing human PD-1) (Homo sapiens, UniProt Q15116) (assay: Jurkat-PD-1 Cell Binding High-Content Screening Assay (CBA)). Details: Jurkat-hPD-1 cells, PE-labeled PD-L1-Ig 20 nM final; read-out: Jurkat HPD1 PDL1 IC50.
T1 construct: expressed in transfected cells; host or cells: Jurkat
Procedure, shortened: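 Jurkat-hPD-1 cells (8×10^3/well) in DMEM with 10% fetal calf serum were preincubated with compound for 2 h at 37 °C. PE-labeled PD-L1-Ig was then added at 20 nM final for 1 h. Cells were fixed in paraformaldehyde with Hoechst 33342, washed and imaged by high-content imaging.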

T1 sequence (Q15116 25-288): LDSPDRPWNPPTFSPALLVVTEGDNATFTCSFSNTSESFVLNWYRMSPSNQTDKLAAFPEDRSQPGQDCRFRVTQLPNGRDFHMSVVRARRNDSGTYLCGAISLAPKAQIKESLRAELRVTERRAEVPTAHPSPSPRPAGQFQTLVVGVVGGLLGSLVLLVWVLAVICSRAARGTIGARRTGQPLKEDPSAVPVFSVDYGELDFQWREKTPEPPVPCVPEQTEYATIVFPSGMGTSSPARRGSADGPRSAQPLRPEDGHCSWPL

| Structure (SMILES) | IC50 |
| --- | --- |
| CC(C)C[C@@H]1NC(=O)[C@H](Cc2c[nH]c3ccccc23)NC(=O)[C@H](CC(=O)O)NC(=O)[C@H](Cc2ccc(OCC(=O)O)cc2)NC(=O)[C@H](CCCCNC(=N)N)NC(=O)CSC[C@@H](C(=O)NCC(=O)NCCOCCOCC(=O)N[C@@H](CCCN)C(=O)NCCCCCCCCCCC(=O)O)NC(=O)[C@H](CCCNC(N)=O)NC(=O)[C@H](C(C)C)NC(=O)[C@H](CC2CCCCC2)NC(=O)[C@H](CCN)NC(=O)[C@@H](CC(C)C)NC(=O)[C@H](C)N(C)C(=O)[C@H](C(C)C)NC(=O)[C@H](Cc2ccc(-c3ccccc3)cc2)NC1=O [Example 2180] ({CH2CO}-[hArg]Y(Carboxymethyl)DWL[Bip]V[NMeA][dL][Dab][Cha]V[Cit]CG[AEEA][Orn][Aun]-OH; thioether N-14) | 16.3 nM |
| CCC(C)[C@@H]1NC(=O)[C@H](Cc2ccc(-c3ccccc3)cc2)NC(=O)[C@H](CC(C)C)NC(=O)[C@H](Cc2c[nH]c3ccccc23)NC(=O)[C@H](CC(=O)O)NC(=O)[C@H](Cc2ccc(O)cc2)NC(=O)[C@H](Cc2ccccc2)NC(=O)CSC[C@@H](C(=O)N[C@@H](CN)C(=O)NCCOCCOCC(=O)NCCCCCCCCCCC(=O)O)NC(=O)[C@H](CO)NC(=O)[C@H](C(C)C)NC(=O)[C@H](CC2CCCCC2)NC(=O)[C@H](CCN)NC(=O)[C@@H](CC(C)C)NC(=O)[C@H](C)N(C)C1=O (stereo partly drawn) [Example 2055] ({CH2CO}-FYDWL[Bip][Ile(3ξ)][NMeA][dL][Dab][Cha]VSC[Dap][AEEA][Aun]-OH; thioether N-14) | 101 nM |
| CC(C)C[C@@H]1NC(=O)[C@H](Cc2c[nH]c3ccccc23)NC(=O)[C@H](CC(=O)O)NC(=O)[C@H](Cc2ccncc2)NC(=O)[C@H](Cc2ccc(OCC(=O)O)cc2)NC(=O)CSC[C@@H](C(=O)Nc2cccc(C(=O)NCCCCCCCCCCC(=O)O)c2)NC(=O)[C@H](CN)NC(=O)[C@H](C(C)C)NC(=O)[C@H](CC2CCCCC2)NC(=O)[C@H](CCN)NC(=O)[C@@H](CC(C)C)NC(=O)[C@H](C)N(C)C(=O)[C@H](C(C)C)NC(=O)[C@H](Cc2ccc(-c3ccccc3)cc2)NC1=O [Example 1216] ({CH2CO}-Y(Carboxymethyl)[4Pal]DWL[Bip]V[NMeA][dL][Dab][Cha]V[Dap]C[3Abz][Aun]-OH; thioether N-14) | 265 nM |
| CCCC[C@H]1C(=O)N[C@H](CC(C)C)C(=O)N[C@@H](CCN)C(=O)N[C@@H](CC2CCCCC2)C(=O)N[C@@H](C(C)C)C(=O)N[C@@H](C(C)O)C(=O)N[C@H](C(=O)N[C@@H](CCCN)C(=O)NCCOCCOCC(=O)NCCCCCCCCCCC(=O)O)CSCC(=O)N[C@@H](Cc2ccncc2)C(=O)N[C@@H](Cc2ccc(OCC(=O)O)cc2)C(=O)N[C@@H](CC(=O)O)C(=O)N[C@@H](Cc2c[nH]c3ccccc23)C(=O)N[C@@H](C(C)C)C(=O)N[C@@H](Cc2ccc(-c3ccccc3)cc2)C(=O)N[C@@H](CC(C)C)C(=O)N1C (stereo partly drawn) [Example 2114] ({CH2CO}-[4Pal]Y(Carboxymethyl)DWV[Bip]L[NMeNle][dL][Dab][Cha]V[Thr(3ξ)]C[Orn][AEEA][Aun]-OH; thioether N-14) | 102 nM |

The next lines start with the values.

| IC50 | Structure (SMILES) |
| --- | --- |
| 94.8 nM | CC(C)C[C@H]1NC(=O)[C@H](C)N(C)C(=O)[C@H](Cc2ccc(OCC(=O)O)cc2)NC(=O)[C@H](Cc2ccc(-c3ccccc3)cc2)NC(=O)[C@H](Cc2ccc(OCC(=O)O)cc2)NC(=O)[C@H](Cc2c[nH]c3ccccc23)NC(=O)[C@H](CC(=O)O)NC(=O)[C@H](Cc2ccncc2)NC(=O)[C@H](Cc2ccc(OCC(=O)O)cc2)NC(=O)CSC[C@@H](C(=O)N[C@@H](CCN)C(=O)NCCOCCOCC(=O)NCCCCCCCCCCC(=O)O)NC(=O)[C@H]([C@@H](C)O)NC(=O)[C@H](C(C)C)NC(=O)[C@H](CC2CCCCC2)NC(=O)[C@H](CC(N)=O)NC1=O [Example 1378] ({CH2CO}-Y(Carboxymethyl)[4Pal]DWY(Carboxymethyl)[Bip]Y(Carboxymethyl)[NMeA][dL]N[Cha]VTC[Dab][AEEA][Aun]-OH; thioether N-14) |
| 35.8 nM | Cc1cccc(C[C@@H]2NC(=O)[C@H](CC(=O)O)NC(=O)[C@H](Cc3ccc(OCC(=O)O)cc3)NC(=O)[C@H](CCCNC(=N)N)NC(=O)CSC[C@@H](C(=O)N[C@@H](CCN)C(=O)NCCCCCCCCCCC(=O)O)NC(=O)[C@H](C(C)O)NC(=O)[C@H](CO)NC(=O)[C@H](CC3CCCCC3)NC(=O)[C@H](CCN)NC(=O)[C@@H](CC(C)C)NC(=O)[C@H](C)N(C)C(=O)[C@H](Cc3ccc(OCC(=O)O)cc3)NC(=O)[C@H](Cc3ccc(-c4ccccc4)cc3)NC(=O)[C@H](Cc3ccc(OCC(=O)O)cc3)NC2=O)c1 (stereo partly drawn) [Example 2370] ({CH2CO}-RY(Carboxymethyl)D[Phe(3-Me)]Y(Carboxymethyl)[Bip]Y(Carboxymethyl)[NMeA][dL][Dab][Cha]S[Thr(3ξ)]C[Dab][Aun]-OH; thioether N-14) |

Same assay, conditions: PE-labeled PD-L1-Ig 20 nM final, Jurkat-hPD-1 cells; read-out: Jurkat HPD1 PDL1 IC50

| IC50 | Structure (SMILES) |
| --- | --- |
| 9.2 nM | CC(C)C[C@H]1NC(=O)[C@H](C)N(C)C(=O)[C@H](CCC(N)=O)NC(=O)[C@H](Cc2ccc(-c3ccccc3)cc2)NC(=O)[C@H](C(C)C)NC(=O)[C@H](Cc2c[nH]c3ccccc23)NC(=O)[C@H](CC(=O)O)NC(=O)[C@H](Cc2ccc(OCC(=O)O)cc2)NC(=O)[C@H](Cc2ccncc2)NC(=O)CSC[C@@H](C(=O)N[C@@H](CCN)C(=O)NCCOCCOCC(=O)NCCCCCCCCCCC(=O)O)NC(=O)[C@H](CCC(=O)O)NC(=O)[C@H](C(C)(C)O)NC(=O)[C@H](CC2CCCCC2)NC(=O)[C@H](CCN)NC1=O [Example 2494] ({CH2CO}-[4Pal]Y(Carboxymethyl)DWV[Bip]Q[NMeA][dL][Dab][Cha][Val(3-OH)]EC[Dab][AEEA][Aun]-OH; thioether N-14) |
| 350 nM | CC(=O)NCCCC[C@@H]1NC(=O)[C@H](C(C)(C)O)NC(=O)[C@H](CC2CCCCC2)NC(=O)[C@H](CCN)NC(=O)[C@@H](CC(C)C)NC(=O)[C@H](C)N(C)C(=O)[C@H](CCC(N)=O)NC(=O)[C@H](Cc2ccc(-c3ccccc3)cc2)NC(=O)[C@H](Cc2ccc(C(=O)O)cc2)NC(=O)[C@H](Cc2cccc(C(F)(F)F)c2)NC(=O)[C@H](CC(=O)O)NC(=O)[C@H](Cc2ccc(OCC(=O)O)cc2)NC(=O)[C@H](Cc2ccc(C(F)(F)F)cc2)NC(=O)CSC[C@@H](C(=O)N[C@@H](CCN)C(=O)NCCOCCOCC(=O)NCCOCCOCC(=O)NCCCCCCCCCCCCCCC(=O)O)NC1=O [Example 2610] ({CH2CO}-[Phe(4-CF3)]Y(Carboxymethyl)D[Phe(3-CF3)][Phe(4-COOH)][Bip]Q[NMeA][dL][Dab][Cha][Val(3-OH)]K(Ac)C[Dab][AEEA][AEEA]-{NH(CH2)14COOH}; thioether N-14) |
| 62.9 nM | CC(C)C[C@H]1NC(=O)[C@H](C)N(C)C(=O)[C@H](Cc2ccc(C(=O)O)cc2)NC(=O)[C@H](Cc2ccc(-c3ccccc3)cc2)NC(=O)[C@H](Cc2ccc(C(=O)O)cc2)NC(=O)[C@H](Cc2cccc(C(F)(F)F)c2)NC(=O)[C@H](CC(=O)O)NC(=O)[C@H](Cc2ccc(C(=O)O)cc2)NC(=O)[C@H](C(C)O)NC(=O)CSC[C@@H](C(=O)N[C@@H](CCN)C(=O)NCCOCCOCC(=O)NCCCCCCCCCCCCC(=O)O)NC(=O)[C@H](CC(=O)O)NC(=O)[C@H](C(C)C)NC(=O)[C@H](CC2CCCCC2)NC(=O)[C@H](CCN)NC1=O (stereo partly drawn) [Example 2612] ({CH2CO}-[Thr(3ξ)][Phe(4-COOH)]D[Phe(3-CF3)][Phe(4-COOH)][Bip][Phe(4-COOH)][NMeA][dL][Dab][Cha]VDC[Dab][AEEA]-{NH(CH2)12COOH}; thioether N-14) |
